The target in test [1] is Serine/threonine-protein kinase/endoribonuclease IRE1 (Homo sapiens) (UniProt O75460). Description: Selectivity interaction (Kinase panel (KiNativ target engagement assay in Jurkat cells)) EUB0001635a ERN1. The settings on record: Selectivity number of off-targets 0.0, Selectivity number of targets 233.0, Source Knowledge https://www.sciencedirect.com/science/article/pii/S2451945619300674?via%3Dihub, at 1 µM. The test is classed as cell-based.

Test [2] addresses Casein kinase II subunit alpha' (Homo sapiens) (UniProt P19784). In words: Selectivity interaction (Ambit KINOMEscan and KiNATiv profiling in Jurkat cells) EUB0000090b CSNK2A2. The test is classed as cell-based. The following applies: at 1 µM.
In test [3] the target is Tyrosine-protein kinase receptor Tie-1 (Homo sapiens) (UniProt P35590). Description: Selectivity interaction (KinomeScan (DiscoverX)) EUB0000655a TIE1. The settings on record: at 10 µM.
Tyrosine-protein kinase receptor Tie-1 (Homo sapiens), sequence (P35590 whole entry): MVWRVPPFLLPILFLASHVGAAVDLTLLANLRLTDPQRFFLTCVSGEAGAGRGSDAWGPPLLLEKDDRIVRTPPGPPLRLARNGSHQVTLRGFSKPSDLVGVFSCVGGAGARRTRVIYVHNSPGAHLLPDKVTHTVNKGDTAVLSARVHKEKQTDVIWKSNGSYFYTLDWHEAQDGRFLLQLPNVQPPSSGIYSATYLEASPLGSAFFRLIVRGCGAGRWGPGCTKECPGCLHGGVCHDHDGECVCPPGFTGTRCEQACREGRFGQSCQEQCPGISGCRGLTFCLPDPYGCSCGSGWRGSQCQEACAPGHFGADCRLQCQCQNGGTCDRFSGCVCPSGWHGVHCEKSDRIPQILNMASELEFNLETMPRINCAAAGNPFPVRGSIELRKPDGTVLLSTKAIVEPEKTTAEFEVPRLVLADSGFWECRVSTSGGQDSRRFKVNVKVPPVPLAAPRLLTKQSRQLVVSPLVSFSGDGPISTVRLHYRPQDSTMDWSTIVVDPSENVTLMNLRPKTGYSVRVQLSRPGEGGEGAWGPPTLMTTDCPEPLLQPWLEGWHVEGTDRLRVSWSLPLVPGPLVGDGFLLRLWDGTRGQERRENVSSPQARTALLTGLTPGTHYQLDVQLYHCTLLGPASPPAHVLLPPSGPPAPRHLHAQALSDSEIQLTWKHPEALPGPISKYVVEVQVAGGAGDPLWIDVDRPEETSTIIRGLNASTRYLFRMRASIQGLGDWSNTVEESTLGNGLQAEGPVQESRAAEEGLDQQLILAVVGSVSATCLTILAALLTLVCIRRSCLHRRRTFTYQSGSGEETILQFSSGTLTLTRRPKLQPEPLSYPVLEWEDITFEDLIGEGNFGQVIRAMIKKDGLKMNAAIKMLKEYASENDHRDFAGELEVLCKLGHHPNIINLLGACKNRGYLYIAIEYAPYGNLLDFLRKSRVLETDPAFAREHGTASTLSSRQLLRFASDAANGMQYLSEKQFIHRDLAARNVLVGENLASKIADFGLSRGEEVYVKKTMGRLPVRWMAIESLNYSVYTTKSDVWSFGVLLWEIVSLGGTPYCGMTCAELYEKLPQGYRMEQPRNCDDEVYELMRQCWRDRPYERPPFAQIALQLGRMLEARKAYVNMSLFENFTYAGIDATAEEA
Test [4] has as its target Insulin receptor-related protein (Homo sapiens) (UniProt P14616). Description: Selectivity interaction (KinomeScan (DiscoverX)) EUB0001079a INSRR. The settings on record: at 1 µM.
Test [5] has as its target Casein kinase II subunit alpha' (Homo sapiens) (UniProt P19784). In words: Selectivity interaction (KinomeScan (DiscoverX)) EUB0001079a CSNK2A2. The settings on record: at 1 µM.
Test [6] concerns the target Tyrosine-protein kinase SYK (Homo sapiens, UniProt P43405). In words: Selectivity interaction (KinomeScan (DiscoverX)) EUB0001619a SYK. The following applies: at 1 µM.
For test [7], the target named is MAP kinase-interacting serine/threonine-protein kinase 1 (Homo sapiens) (UniProt Q9BUB5). Description: Selectivity interaction (Kinase panel (literature)) EUB0001199aCl MKNK1. The settings on record: at 1 µM.
MAP kinase-interacting serine/threonine-protein kinase 1 (Homo sapiens), sequence (Q9BUB5 whole entry, looked up): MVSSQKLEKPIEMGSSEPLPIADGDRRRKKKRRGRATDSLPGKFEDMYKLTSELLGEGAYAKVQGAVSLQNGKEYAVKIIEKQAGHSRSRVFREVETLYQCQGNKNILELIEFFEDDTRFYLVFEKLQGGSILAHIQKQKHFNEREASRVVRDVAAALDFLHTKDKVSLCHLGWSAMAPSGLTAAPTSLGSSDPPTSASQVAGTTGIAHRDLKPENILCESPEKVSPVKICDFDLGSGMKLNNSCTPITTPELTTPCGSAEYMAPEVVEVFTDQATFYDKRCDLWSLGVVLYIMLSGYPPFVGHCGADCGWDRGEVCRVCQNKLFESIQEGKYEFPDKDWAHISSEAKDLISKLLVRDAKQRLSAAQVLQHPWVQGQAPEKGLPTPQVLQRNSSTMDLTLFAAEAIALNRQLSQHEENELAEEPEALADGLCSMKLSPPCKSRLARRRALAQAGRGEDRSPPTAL
The target of test [8] is Mitogen-activated protein kinase 14 (Homo sapiens, UniProt Q16539). Description: Selectivity interaction (Enzymatic assay) EUB0001199aCl MAPK14.
Mitogen-activated protein kinase 14, sequence (Q16539 whole entry): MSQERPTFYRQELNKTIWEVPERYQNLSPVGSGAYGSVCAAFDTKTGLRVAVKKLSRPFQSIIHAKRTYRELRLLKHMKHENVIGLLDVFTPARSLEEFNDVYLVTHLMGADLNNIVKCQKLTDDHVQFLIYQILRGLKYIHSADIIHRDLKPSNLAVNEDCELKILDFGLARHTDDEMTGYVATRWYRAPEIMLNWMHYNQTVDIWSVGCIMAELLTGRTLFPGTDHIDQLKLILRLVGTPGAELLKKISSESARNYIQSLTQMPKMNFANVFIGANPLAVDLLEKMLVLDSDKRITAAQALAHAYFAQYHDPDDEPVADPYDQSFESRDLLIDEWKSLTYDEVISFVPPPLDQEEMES
Test [9] has as its target Serine/threonine-protein kinase 38 (Homo sapiens) (UniProt Q15208). In words: Selectivity interaction (ActivX KiNativ screen (kinase selectivity in THP-1 cell lysates)) EUB0000639a STK38. The test is classed as subcellular. The following applies: lysate, at 0.01 µM.
The target in test [10] is T1, Ephrin type-A receptor 1 (Homo sapiens) (UniProt P21709).
T1 sequence (whole entry): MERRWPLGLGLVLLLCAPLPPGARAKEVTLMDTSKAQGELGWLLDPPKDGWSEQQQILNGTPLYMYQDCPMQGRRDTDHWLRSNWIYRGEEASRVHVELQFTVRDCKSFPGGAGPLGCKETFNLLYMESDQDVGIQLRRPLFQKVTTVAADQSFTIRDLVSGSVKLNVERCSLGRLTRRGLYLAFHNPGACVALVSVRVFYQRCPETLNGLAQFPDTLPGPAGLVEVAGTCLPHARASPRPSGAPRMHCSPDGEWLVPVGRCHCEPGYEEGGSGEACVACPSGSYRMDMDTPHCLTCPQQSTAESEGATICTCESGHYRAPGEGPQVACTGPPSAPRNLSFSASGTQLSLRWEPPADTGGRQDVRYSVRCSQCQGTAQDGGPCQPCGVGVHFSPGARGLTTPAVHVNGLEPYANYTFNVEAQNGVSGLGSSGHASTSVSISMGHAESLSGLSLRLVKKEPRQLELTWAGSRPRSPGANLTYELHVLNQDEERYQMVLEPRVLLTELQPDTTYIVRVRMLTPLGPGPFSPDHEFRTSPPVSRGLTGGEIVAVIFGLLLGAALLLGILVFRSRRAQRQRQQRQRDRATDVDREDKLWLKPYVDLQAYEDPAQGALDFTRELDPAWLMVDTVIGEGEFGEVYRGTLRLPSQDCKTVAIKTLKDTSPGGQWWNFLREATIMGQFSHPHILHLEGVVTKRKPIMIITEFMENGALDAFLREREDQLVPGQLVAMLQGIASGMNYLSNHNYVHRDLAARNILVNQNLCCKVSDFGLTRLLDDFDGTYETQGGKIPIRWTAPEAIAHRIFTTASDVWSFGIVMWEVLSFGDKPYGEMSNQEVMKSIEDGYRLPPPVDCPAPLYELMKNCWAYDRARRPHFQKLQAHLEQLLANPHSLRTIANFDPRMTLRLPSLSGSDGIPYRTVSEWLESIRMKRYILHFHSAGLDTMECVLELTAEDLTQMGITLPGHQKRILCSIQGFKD
The settings on record: at 10 µM.

Test [11] addresses T2, Ephrin type-B receptor 1 (Homo sapiens) (UniProt P54762).
T2 sequence (whole entry): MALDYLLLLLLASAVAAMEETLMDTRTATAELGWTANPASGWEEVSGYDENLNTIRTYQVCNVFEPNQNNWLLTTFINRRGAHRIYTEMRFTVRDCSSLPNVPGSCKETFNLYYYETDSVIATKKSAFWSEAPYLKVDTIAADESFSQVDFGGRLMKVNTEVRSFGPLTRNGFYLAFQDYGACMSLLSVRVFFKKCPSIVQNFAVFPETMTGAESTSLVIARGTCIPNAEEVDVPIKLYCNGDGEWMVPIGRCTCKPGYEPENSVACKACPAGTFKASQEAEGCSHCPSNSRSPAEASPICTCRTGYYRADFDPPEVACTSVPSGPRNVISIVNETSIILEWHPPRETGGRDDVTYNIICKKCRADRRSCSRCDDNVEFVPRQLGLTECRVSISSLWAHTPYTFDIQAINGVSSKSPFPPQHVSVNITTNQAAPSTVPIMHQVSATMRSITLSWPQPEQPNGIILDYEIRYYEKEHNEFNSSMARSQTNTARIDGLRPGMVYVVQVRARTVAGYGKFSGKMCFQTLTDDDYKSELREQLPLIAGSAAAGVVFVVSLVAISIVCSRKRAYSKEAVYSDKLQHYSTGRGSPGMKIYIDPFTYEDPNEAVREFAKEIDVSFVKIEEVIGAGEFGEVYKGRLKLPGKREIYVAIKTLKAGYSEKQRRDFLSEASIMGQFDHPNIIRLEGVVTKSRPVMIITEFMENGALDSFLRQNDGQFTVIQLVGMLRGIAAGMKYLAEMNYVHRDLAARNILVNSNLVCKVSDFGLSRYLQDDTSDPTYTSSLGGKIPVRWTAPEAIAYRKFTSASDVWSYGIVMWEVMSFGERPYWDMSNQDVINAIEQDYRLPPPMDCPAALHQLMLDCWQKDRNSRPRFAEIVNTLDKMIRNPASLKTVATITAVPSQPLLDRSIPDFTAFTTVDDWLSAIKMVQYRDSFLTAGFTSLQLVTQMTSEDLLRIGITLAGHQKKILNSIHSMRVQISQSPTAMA
The following applies: at 10 µM.

In test [12] the target is Cyclin-dependent kinase 4/cyclin D1 (Homo sapiens, UniProt P11802).
Cyclin-dependent kinase 4/cyclin D1, sequence (P11802 whole entry): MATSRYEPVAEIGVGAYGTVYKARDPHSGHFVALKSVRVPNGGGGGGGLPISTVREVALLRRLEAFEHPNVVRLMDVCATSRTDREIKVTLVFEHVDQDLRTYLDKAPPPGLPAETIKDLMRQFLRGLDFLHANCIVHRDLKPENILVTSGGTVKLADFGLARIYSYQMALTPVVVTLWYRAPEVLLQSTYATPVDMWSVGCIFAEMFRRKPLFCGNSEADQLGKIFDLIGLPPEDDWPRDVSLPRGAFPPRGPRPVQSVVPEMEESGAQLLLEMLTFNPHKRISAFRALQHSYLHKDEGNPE
Cyclin-dependent kinase 4/cyclin D1, sequence (P24385 whole entry, further chain): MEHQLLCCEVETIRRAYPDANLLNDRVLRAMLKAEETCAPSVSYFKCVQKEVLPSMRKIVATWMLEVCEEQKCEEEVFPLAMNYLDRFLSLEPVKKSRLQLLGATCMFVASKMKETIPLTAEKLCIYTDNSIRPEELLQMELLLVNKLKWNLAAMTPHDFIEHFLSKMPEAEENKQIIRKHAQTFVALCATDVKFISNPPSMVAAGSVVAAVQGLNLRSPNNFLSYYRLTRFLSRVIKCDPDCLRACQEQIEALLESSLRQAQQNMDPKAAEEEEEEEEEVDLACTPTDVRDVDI
The target of test [13] is Dual specificity testis-specific protein kinase 1 (Homo sapiens) (UniProt Q15569). In words: Selectivity interaction (KinomeScan (DiscoverX)) EUB0000695a TESK1. The settings on record: at 100 nM.
Dual specificity testis-specific protein kinase 1 (Homo sapiens), sequence (Q15569 whole entry, looked up): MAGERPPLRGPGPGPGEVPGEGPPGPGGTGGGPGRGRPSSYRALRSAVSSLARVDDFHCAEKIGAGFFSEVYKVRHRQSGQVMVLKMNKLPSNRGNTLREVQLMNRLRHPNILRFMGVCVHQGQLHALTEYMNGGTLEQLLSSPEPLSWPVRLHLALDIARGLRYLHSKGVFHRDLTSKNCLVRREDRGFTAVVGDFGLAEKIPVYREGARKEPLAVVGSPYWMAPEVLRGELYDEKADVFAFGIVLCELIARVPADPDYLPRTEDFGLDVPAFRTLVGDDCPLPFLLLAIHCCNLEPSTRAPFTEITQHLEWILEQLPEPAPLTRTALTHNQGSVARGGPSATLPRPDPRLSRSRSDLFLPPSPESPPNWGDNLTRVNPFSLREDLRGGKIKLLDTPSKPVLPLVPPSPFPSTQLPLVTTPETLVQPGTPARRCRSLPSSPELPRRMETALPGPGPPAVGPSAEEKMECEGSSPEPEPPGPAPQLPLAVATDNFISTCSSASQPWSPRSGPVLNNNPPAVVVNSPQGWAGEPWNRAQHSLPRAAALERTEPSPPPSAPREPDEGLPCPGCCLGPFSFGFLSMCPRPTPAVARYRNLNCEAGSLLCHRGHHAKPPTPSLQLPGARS
Test [14] deals with RAC-alpha serine/threonine-protein kinase (Homo sapiens, UniProt P31749). Description: Selectivity interaction (KinomeScan (DiscoverX)) EUB0000045b AKT1.
RAC-alpha serine/threonine-protein kinase, sequence (P31749 whole entry): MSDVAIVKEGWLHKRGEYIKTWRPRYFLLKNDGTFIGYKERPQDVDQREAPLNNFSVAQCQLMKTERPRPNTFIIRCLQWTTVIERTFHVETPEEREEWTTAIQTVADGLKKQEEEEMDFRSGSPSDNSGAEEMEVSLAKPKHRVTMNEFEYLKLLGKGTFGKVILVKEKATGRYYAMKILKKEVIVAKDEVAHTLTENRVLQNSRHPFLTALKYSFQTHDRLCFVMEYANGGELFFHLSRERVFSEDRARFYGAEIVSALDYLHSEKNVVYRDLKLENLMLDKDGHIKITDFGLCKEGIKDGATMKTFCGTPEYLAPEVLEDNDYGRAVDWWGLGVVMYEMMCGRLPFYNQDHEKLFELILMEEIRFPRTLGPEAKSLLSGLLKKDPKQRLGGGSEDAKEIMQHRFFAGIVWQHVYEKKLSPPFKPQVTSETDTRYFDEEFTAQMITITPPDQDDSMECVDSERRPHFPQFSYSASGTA
The target of test [15] is Serine/threonine-protein kinase 32B (Homo sapiens) (UniProt Q9NY57). In words: Selectivity interaction (KinomeScan (DiscoverX)) EUB0000618a STK32B. The following applies: at 10 µM.
Serine/threonine-protein kinase 32B (Homo sapiens), sequence (Q9NY57 whole entry): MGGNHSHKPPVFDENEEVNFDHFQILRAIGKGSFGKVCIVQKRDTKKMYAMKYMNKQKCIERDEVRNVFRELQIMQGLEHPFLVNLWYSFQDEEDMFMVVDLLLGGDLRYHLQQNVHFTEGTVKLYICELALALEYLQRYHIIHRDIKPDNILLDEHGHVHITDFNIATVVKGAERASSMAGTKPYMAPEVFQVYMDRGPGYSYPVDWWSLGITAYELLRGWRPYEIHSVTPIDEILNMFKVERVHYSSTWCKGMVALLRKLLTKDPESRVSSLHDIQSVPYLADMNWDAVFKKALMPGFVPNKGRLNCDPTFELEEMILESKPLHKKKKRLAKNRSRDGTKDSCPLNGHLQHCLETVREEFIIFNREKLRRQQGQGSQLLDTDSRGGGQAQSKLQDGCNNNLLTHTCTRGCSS

Casein kinase II subunit alpha' (Homo sapiens), sequence (P19784 whole entry, looked up): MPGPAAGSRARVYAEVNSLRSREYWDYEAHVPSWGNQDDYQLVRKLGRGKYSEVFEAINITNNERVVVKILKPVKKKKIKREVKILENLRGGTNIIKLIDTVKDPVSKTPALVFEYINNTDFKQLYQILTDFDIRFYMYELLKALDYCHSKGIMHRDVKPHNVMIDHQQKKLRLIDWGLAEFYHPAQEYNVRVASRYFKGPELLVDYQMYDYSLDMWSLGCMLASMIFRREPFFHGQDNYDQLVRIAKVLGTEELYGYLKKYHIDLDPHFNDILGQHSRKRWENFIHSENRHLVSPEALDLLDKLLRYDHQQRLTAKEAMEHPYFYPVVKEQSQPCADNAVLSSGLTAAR
Serine/threonine-protein kinase 38 (Homo sapiens), sequence (Q15208 2-465 limits assumed): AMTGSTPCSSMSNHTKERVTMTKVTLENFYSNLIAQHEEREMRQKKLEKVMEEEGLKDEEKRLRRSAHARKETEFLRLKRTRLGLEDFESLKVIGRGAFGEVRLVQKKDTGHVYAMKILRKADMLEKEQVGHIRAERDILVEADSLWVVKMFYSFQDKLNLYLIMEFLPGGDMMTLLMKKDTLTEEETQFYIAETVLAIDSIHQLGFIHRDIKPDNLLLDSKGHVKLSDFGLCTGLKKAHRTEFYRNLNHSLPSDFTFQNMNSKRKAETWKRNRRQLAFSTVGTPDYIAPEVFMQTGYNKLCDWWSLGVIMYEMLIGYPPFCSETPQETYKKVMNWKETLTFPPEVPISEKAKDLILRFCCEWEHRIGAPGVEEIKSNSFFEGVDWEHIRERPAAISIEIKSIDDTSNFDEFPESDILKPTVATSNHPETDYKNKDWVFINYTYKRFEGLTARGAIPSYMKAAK

In the case of `C=CC(=O)Nc1ccc(C(=O)Nc2[nH]nc3c2CN(C(=O)N[C@H](CN(C)C)c2ccccc2)C3(C)C)cc1`, in [1], the % of engagement is -0.9%.

Regarding `CN(C)C/C=C/C(=O)Nc1ccc(C(=O)N2CCCC(Nc3ncc(Cl)c(-c4c[nH]c5ccccc45)n3)C2)cc1` (stereo unspecified), the % of control in test [2] came out at 89%. The molecule `CN(C)CCOc1ccc(-c2nc(-c3ccncc3)c(-c3ccc4c(c3)CC/C4=N\O)[nH]2)cc1` returned a % of control in test [3] of 44%. For the molecule `Nc1cnc(N2CCc3cc(S(=O)(=O)Nc4c(F)cc(Cl)cc4F)cc(N4CCCC4=O)c32)nc1` [TP-020n], the % of control in test [4] came to 100%; in [5] it was 98%.

With `N#Cc1cccc(-c2c[nH]c3ncnc(N4CCOCC4)c23)c1`, the % of control in test [6] came out at 100%. For `CN1Cc2nccc(-c3cn(C)nc3-c3ccc(F)cc3)c2C1=O`, the % of inhibition in test [7] was -1%. In test [8], this molecule registered an IC50 of 861 nM. Take `CC[C@@H]1[C@H](F)C(=O)N[C@@H]1COc1nccc2cc(C(N)=O)c(OC)cc12` [ZIMLOVISERTIB]: the % of inhibition in test [9] came to 1.5%. Regarding `CCN(CC)CCCCNc1ncc2cc(-c3cc(OC)cc(OC)c3)c(NC(=O)NC(C)(C)C)nc2n1`, the % of control in [10] and in test [11] was 100% throughout. The molecule `CCc1cccc(CC)c1NC(=O)c1nn(C)c2c1CCc1cnc(Nc3ccc(C(=O)NC4CCN(C)CC4)cc3OC(F)(F)F)nc1-2` displayed a half-inhibitory concentration (IC50) in [12] greater than 10000 nM. Take `Cc1cc(F)c(C(=O)Nc2cccc(-c3nncn3C(C)C)n2)cc1-n1cnc(C2CC2)c1`: the % of control in [13] was found to be 85%. With `C=CC(=O)Nc1cc(-n2c(=O)ccc3cnc4ccc(-c5ccc(NS(C)(=O)=O)cc5)cc4c32)ccc1C`, the % of control came to 12% in test [14] (at 1 µM) and 100% in [14] (at 10 µM). In test [15], `O[C@H]1CC[C@H](Nc2ncc3nc(Nc4c(F)cc(F)cc4F)n([C@H]4CCOC4)c3n2)CC1` gave a % of control of 87%.

The values above are taken from ChEMBL document CHEMBL5465560, “Selectivity Literature for EUbOPEN Chemogenomic Library” (2024).
